Experimental data from paper PMC11890061 (2025).

Legend:
[1] = test system: FAM-D-(UG)12 (RNA, G4) UGUGUGUGUGUGUGUGUGUGUGUG; assay: EMSA competition; settings: 150 mM KCl, 1 mM MgCl2; 25 mM Tris-HCl pH 7.5, 37 °C; 250 nM L-apt3.1 (L-RNA aptamer) displaced; 10 nM RNA
[2] = test system: FAM-D-(UG)12 mut1 (RNA, single strand) UGUAUGUGUAUGUGUAUGUGUAUG; assay: NMM staining of native gel; settings: 150 mM KCl (gel: 50 mM potassium acetate); 10 mM Tris-HCl pH 7.5; 2.5 μM oligo; 1 μg/mL NMM highest tested; no band
[3] = test system: FAM-D-(UG)12 mut2 (RNA, single strand) UGUGCGUGUGCGUGUGCGUGUGCG; assay: NMM staining of native gel; settings: 150 mM KCl (gel: 50 mM potassium acetate); 10 mM Tris-HCl pH 7.5; 2.5 μM oligo; 1 μg/mL NMM highest tested; no band
[4] = test system: FAM-D-(TG)12 (DNA, single strand) TGTGTGTGTGTGTGTGTGTGTGTG; assay: NMM staining of native gel; settings: 150 mM KCl (gel: 50 mM potassium acetate); 10 mM Tris-HCl pH 7.5; 2.5 μM oligo; 1 μg/mL NMM highest tested; no band
[5] = test system: D-apt3.1 (RNA, aptamer) GCCGCACUGGUGGGUCGGUGGGAAGCGGC; assay: ligand fluorescence enhancement; settings: 150 mM KCl; 10 mM LiCaco pH 7.0; 1 μM RNA, 1 μM ligand; higher in K+ than Li+
[6] = test system: L-apt3.1 (L-RNA, aptamer, all L-ribonucleotides) GCCGCACUGGUGGGUCGGUGGGAAGCGGC; assay: ligand fluorescence enhancement; settings: 150 mM KCl; 10 mM LiCaco pH 7.0; 1 μM RNA, 1 μM ligand; higher in K+ than Li+
[7] = test system: D-apt3.1b (RNA, aptamer) GCCGCACUUCUGGGGGGGUGGGAAGCGGC; assay: ligand fluorescence enhancement; settings: 150 mM KCl; 10 mM LiCaco pH 7.0; 1 μM RNA, 1 μM ligand; higher in K+ than Li+
[8] = test system: D-apt3.1e (RNA, aptamer) GCCGCAAUGGUGGGUAGGUGGGAAGCGGC; assay: ligand fluorescence enhancement; settings: 150 mM KCl; 10 mM LiCaco pH 7.0; 1 μM RNA, 1 μM ligand; higher in K+ than Li+
[9] = test system: D-apt3.1g (RNA, aptamer) GCCGCACUGGCGGGUCGGUGGGAAGCGGC; assay: ligand fluorescence enhancement; settings: 150 mM KCl; 10 mM LiCaco pH 7.0; 1 μM RNA, 1 μM ligand; higher in K+ than Li+
[10] = test system: D-apt3.1h (RNA, aptamer) GCCGCACUGGUGGGUCGGUGGGGAGCGGC; assay: ligand fluorescence enhancement; settings: 150 mM KCl; 10 mM LiCaco pH 7.0; 1 μM RNA, 1 μM ligand; higher in K+ than Li+
[11] = test system: D-apt3.1i (RNA, aptamer) GCCGCACUGGUGGGUCGGUGGGAGGCGGC; assay: ligand fluorescence enhancement; settings: 150 mM KCl; 10 mM LiCaco pH 7.0; 1 μM RNA, 1 μM ligand; higher in K+ than Li+
[12] = test system: D-(UG)12 (RNA, G4) UGUGUGUGUGUGUGUGUGUGUGUG; assay: fluorescence titration (microplate reader); settings: 150 mM KCl, 1 mM MgCl2; 25 mM Tris-HCl pH 7.5, 37 °C; 100 nM NMM, RNA varied; one-site fit

IC50 [1] [µM]	binding [2]	binding [3]	binding [4]	binding [5]	binding [6]	binding [7]	binding [8]	binding [9]	binding [10]	binding [11]	Kd [12] [µM]	Compound
10.7 ± 1.1	no	no	no	yes	yes	yes	yes	yes	yes	yes	0.3774 ± 0.1006	CCc1c(C)c2cc3nc(cc4nc(cc5c(CC)c(C)c(cc1[nH]2)n5C)C(C)=C4CCC(=O)O)C(CCC(=O)O)=C3C
				yes	yes							Cc1ccc2c(c1)sc(-c1ccc(N(C)C)cc1)[n+]2C
